# Data reported in paper PMC8063472, “Pharmacokinetics of five phthalides in volatile oil of Ligusticum sinense Oliv.cv. Chaxiong, and comparison study on physicochemistry and pharmacokinetics after being formulated into solid dispersion and inclusion compound” (BMC Complementary Medicine and Therapies, 2021).
# Where two headings read alike, the source gives them in different places.
# Legend:
# [1] = Pharmacokinetic study in rats (plasma LC-MS/MS) after iv or oral VOC, oral VOC-P188 or oral VOC-β-CD; type: in vivo, Sprague Dawley rats; details: for AUC(0-t) / MRT last / Tmax / half-life / Cmax / bioavailability: male, Sprague-Dawley, rat, plasma; for MRT last: read-out: MRT0-t; for half-life: read-out: t1/2β (converted); for bioavailability: VOC-P188 and VOC-β-CD po, read-out: bioavailability in the two preparations
# Description: The intravenous injection solution was prepared by dissolving 0.15 g of VOC in 25 ml water containing 3 ml 10% Tween-80 as solubilizer. The oral solution was prepared by dissolving 0.35 g of VOC in 25 ml normal saline containing 3 ml 10% Tween-80 as solubilizer. The VOC-P188 solution was prepared by mixing VOC-P188 5 g in 25 ml water with magnetic stirring apparatus. The VOC-β-CD solution was prepared by mixing VOC-β-CD 3.5 g in 25 ml water with magnetic stirring apparatus.
# Twenty-four male SD rats (220 ~ 250 g) were randomly divided into four groups, 6 in each group. After fasting for 12 h before administration, the rats in group 1 were given VOC by tail vein injection at a dose of 30 mg/Kg, the rats at second group were oral administration of VOC solution, the dosage was 120 mg/Kg based on the mass of VOC. The rats at groups 3 and 4 were given VOC-P188 and VOC-β-CD, respectively.
# Blood samples (0.3 ml) were collected from the eyes at 0.08, 0.17, 0.33, 0.5, 1, 1.5, 2, 4, 6, 8, 12 and 24 h after administration, and they were immediately transferred into a heparinized Eppendorf (EP) tube. The blood samples were then centrifuged at 13,000 r/min for 10 min. The plasma samples were stored at − 80 °C for later analysis.
# The thawed plasma sample (0.1 ml) was transferred to another EP tube and 20 μl of DL, 50 μl of 2% formic acid and 500 μl of methanol were added. The mixture was vortexed for 2 min, and centrifuged at 13000 r/min for 10 min. The supernatant was transferred into a clean EP tube, and evaporated to dryness under a stream of nitrogen at 40 °C. The residue was dissolved in 100 μl of methanol. The supernatant was injected into the HPLC system.
# An HPLC system consisting of a solvent-delivery system LC-30 AD, an autosampler SIL-30 AC, a column oven CTO-30 AC, a solvent degasser DGU-20A3, and a controller CBM-20A from […] was used in the study. Separation was conducted using a Shim-pack GIST C18-AQ HP column (2.1 mm × 100 mm, 3 μm). The column oven was maintained at 35 °C. The mobile phase was 0.1% formic acid in water as mobile phase A and acetonitrile as mobile phase B. The linear gradient elution program was set according to preliminary tests: 45–60% B, 0–2 min; 60–65% B, 2–6 min; 65–95% B, 6–7 min; 95–45% B, 7–9 min and 45% B, 9–10 min, with the flow rate kept at 0.3 ml/min. The injection volume was set at 2 μl.
# The MS analysis was performed on a 4500 QTRAP™ system from Applied Biosystems (AB Sciex) equipped with Turbo V sources and Turbo Ion Spray™ (TIS) interface. Electrospray ionization was performed in positive mode. Ion source: electrospray ion source (ESI source); detection method: multiple reaction monitoring (MRM); ion source temperature: 500 °C; desolvent gas temperature: 550 °C; desolvent gas flow rate: 800 l/h. The detection ion pair, retention time, declustering voltage and collision energy of each index component and internal standard were shown in Table 2.
# The plasma SA, NBP, NOL, ZL and BP concentrations were evaluated using the equation from the standard curves that were run with each batch of samples. The plasma concentration-time data were analyzed with the Drug and Statistics 2.0 software package to determine the pharmacokinetic parameters. The observed Cmax value was obtained from the observed data and the observed AUC0 → t value was calculated using the trapezoidal rule. The absolute bioavailability of VOC and the relative bioavailability of VOC-P188 and VOC-β-CD were calculated, the formula for calculating absolute bioavailability (F1) and relative bioavailability (F2): F1=AUCpo×Div/AUCiv×Dpo×100% […]
# Where AUC is the area under the temporal curve of blood drug concentration (μg/l*h), D is administration dosage (mg/kg); the subscripts iv and po are injection and oral administration, respectively; the subscript R is reference drug (VOC); the subscript T is solid dispersion or inclusion compound.
# [2] = In vitro dissolution, paddle method, pH 5.8 phosphate buffer; type: physicochemical
# Description: Dissolution studies were performed according to the USP XXI method 2 (paddle method) at 37 ± 0.5 °C at 50 rpm. 900 ml of dissolution medium were used as standard volume. Dissolution samples (1 mL) were withdrawn at the specified times of 15, 30, 45, 60, 90, 120 min from Dissolution cups, and 1 ml of dissolution medium was replenished in the same time. Samples were filtered through a 0.45 μm nylon disc filter and were measured absorbance at 230 nm by HPLC [11].
# [3] = set-up: method as in PMID 18039808; details: cited from earlier work
# [4] = Stability test of VOC-P188 and VOC-β-CD (temperature, illumination); type: physicochemical
# [5] = VOC iv 30 mg/kg, rat plasma, n = 6
# [6] = VOC po 120 mg/kg, rat plasma, n = 6
# [7] = VOC-P188 solid dispersion po vs VOC po, rats
# [8] = VOC-P188 solid dispersion po, rat plasma, n = 6
# [9] = VOC-β-CD inclusion compound po vs VOC po, rats
# [10] = VOC-β-CD inclusion compound po, rat plasma, n = 6
# [11] = iv, 30 mg/kg, VOC iv 30 mg/kg, rat plasma, n = 6
# [12] = iv, 30 mg/kg, VOC iv 30 mg/kg, rat plasma, n = 6, read-out: Tmax
# [13] = iv, 30 mg/kg, VOC iv (tail vein) 30 mg/kg, rat plasma, n = 6
# [14] = po, 120 mg/kg, VOC po 120 mg/kg, rat plasma, n = 6
# [15] = po, 120 mg/kg, VOC po 120 mg/kg, rat plasma, n = 6, read-out: Tmax
# [16] = po, VOC-P188 solid dispersion po, rat plasma, n = 6
# [17] = po, VOC-P188 solid dispersion po, rat plasma, n = 6, read-out: Tmax
# [18] = po, VOC-β-CD inclusion compound po, rat plasma, n = 6
# [19] = po, VOC-β-CD inclusion compound po, rat plasma, n = 6, read-out: Tmax
Structure (SMILES),"t1/2α [1, 5] [h]","t1/2α [1, 6] [h]","F2 (relative bioavailability) [1, 7] [%]","t1/2α [1, 8]","F2 (relative bioavailability) [1, 9] [%]","t1/2α [1, 10]","AUC(0-t) [1, 11] [ng·h/mL]","MRT last [1, 11] [h]","Tmax [1, 12] [h]","half-life [1, 11] [h]","Cmax [1, 13] [ng/mL]","AUC(0-t) [1, 14] [ng·h/mL]","Cmax [1, 14] [ng/mL]","MRT last [1, 14] [h]","Tmax [1, 15] [h]","half-life [1, 14] [h]","bioavailability ([1]; po, rats) [%]","AUC(0-t) [1, 16] [ng·h/mL]","Cmax [1, 16] [ng/mL]","MRT last [1, 16] [h]",other results
CCC/C=C1\OC(=O)c2ccccc21 [BP],0.04 ± 0.04,1.38 ± 1.02,251.50,2.72 ± 3.66 h,363.55,7.02 ± 5.42^* h,198 ± 42.8,1.28 ± 0.32,0.083,0.7 ± 0.54,373 ± 155,99.1 ± 23.3,43.7 ± 10.9,3.46 ± 1.08,0.5 ± 0.28,3.74 ± 3.26,< 50,249 ± 24.5,40.3 ± 8.37,7.42 ± 0.6,"Tmax ([1]; po, 120 mg/kg, after oral administration of VOC, rats, read-out: Tmax (time of peak concentration)): < 0.5 h; Tmax [1, 17]: 0.42 ± 0.33 h; half-life [1, 16]: 8.64 ± 2.44 h; AUC(0-t) [1, 18]: 298 ± 31.7 ng·h/mL; Cmax [1, 18]: 38.8 ± 16 ng/mL; MRT last [1, 18]: 8.45 ± 0.77 h; Tmax [1, 19]: 0.35 ± 0.19 h; half-life [1, 18]: 19.6 ± 5.63 h; solubility in pH 5.8 PBS [2]: poor solubility"
"CCC/C=C1\OC(=O)C2=C1CCC=C2 [ZL, Z-ligustilide]",0.04 ± 0.04,0.82 ± 0.51,163.35,4.40 ± 4.10^* h,224.54,4.72 ± 1.92^* h,1240 ± 435,0.45 ± 0.1,0.083,0.55 ± 0.66,4530 ± 1450,504 ± 53.3,214 ± 76,3.94 ± 0.54,0.22 ± 0.09,5.48 ± 2.61,< 50,801 ± 199,320 ± 286,5.95 ± 0.49,"Oral bioavailability [3]: 2.6%; Tmax [1, 17]: 0.49 ± 0.42 h; half-life [1, 16]: 8.91 ± 5.25 h; AUC(0-t) [1, 18]: 883 ± 211 ng·h/mL; Cmax [1, 18]: 145 ± 24.8 ng/mL; MRT last [1, 18]: 7.31 ± 0.33 h; Tmax [1, 19]: 0.4 ± 0.17 h; half-life [1, 18]: 5.96 ± 2.9 h; content decreased by ([4]; in VOC-P188, 60 °C for 10 days): 38.9%; content decreased by ([4]; in VOC-β-CD, 60 °C for 10 days): 20.3%; solubility in pH 5.8 PBS [2]: poor solubility"
